Tested on: calcium channel (e.g., L-type, N-type, etc.)
Assay: HEK assay, whole-cell patch clamp of transiently transfected HEK-293T/17 cells
Assay type: cell-based
Settings: whole-cell voltage clamp, holding potential −100 mV
Experimental: HEK-293T/17 cells are transiently transfected in a similar manner as described in FuGENE 6 Package Insert Version 7, April 2002, Roche Applied Science, Indianapolis, Ind. The cells are plated at 2.5×10^5 cells in 2 mL in a 6-well plate in incubator for one night and achieve a 30˜40% confluence. In a small sterile tube, add sufficient serum-free medium as diluent for FuGENE Transfection Reagent (Roche Applied Science, Indianapolis, Ind.), to a total volume of 100 μL. Add 3 μL of FuGENE 6 Reagent directly into this medium. The mixture is tapped gently to mix. 2 μg of DNA solution (0.8-2.0 μg/μL) is added to the prediluted FuGENE 6 Reagent from above. The DNA/Fugene 6 mixture is gently pipeted to mix the contents and incubated for about 15 minutes at room temperature. The complex mixture is then added to the HEK-293T/17 cells, distributing it around the well, and swirled to ensure even dispersal. The cells are returned to the incubator for 24 hrs. The transfected cells are then replated at density 2.5×10^5 in a 35 mm dish with 5 glass coverslips and grow in low serum (1%) media for 24 hrs. Coverslips with isolated cells are then transferred into chamber and calcium channel (e.g., L-type, N-type, etc.) current or other currents for counter screening are recorded from the transiently transfected HEK-293T/17 cells. […]

IC50 | SMILES
135 nM | CN(Cc1nc(CNc2ccc(F)cc2)cn1-c1ccc(Cl)cc1)c1ccc(F)cc1 [Compound 5]
2690 nM | CN(Cc1nc(CN2CCCC2)cn1-c1ccc(Cl)cc1)c1ccc(F)cc1 [Compound 6]

Source: US20070197619A1, “Ion Channel Modulators” (priority 2004, published 2007)
